From patent US20070020234A1, “Inhibition of tumor angiogenesis by combination of thrombospondin-1 and inhibitors of vascular endothelial growth factor” (priority 2003, published 2007)
“Also recorded” adds a separate entry of the source.

Key:
VEGF = conditions: cited from earlier work
TSP-1 expression = assay: Northern blot of TSP-1 expression; format: cell-based, human; conditions: for TSP-1 expression relative to basal level after inhibitor treatment: MDA-MB-231 cells (FIG. 2B/2); for TSP-1 expression in the absence of HGF/SF induction: inhibitor 24 hours, LF at 1, 3 or 9 μg/ml (FIG. 2D); for HGF/SF-induced shut off (down-regulation) of TSP-1: SK-LMS-1 and MDA-MB-231 cells, inhibitor followed by HGF/SF for 24 hours
Procedure: (§1) FIG. 1A-1C. HGF/SF up-regulates VEGF and down-regulates TSP-1 expression in SK-LMS-1 cells (FIG. 1A) and MDA-MB-231 cells (FIG. 1B) and HUVEC cells (FIG. 1C). Total RNAs were prepared from SK-LMS-1 cells, MDA-MB-231 cells or HUVEC with or without treatment of recombinant human HGF/SF (200 units/ml) at the indicated time points after stimulation. Total RNAs were also prepared from the SK/HGF cell line, a long-term culture derivative of SK-LMS-1 cells that is autocrine for human HGF/SF (15). Northern Blot was probed with ^32P-radiolabeled TSP-1, VEGF or G3PDH cDNA fragment, respectively. For HUVEC, treatment of recombinant human HGF/SF (200 units/ml) was for 24 hours in the presence or absence of fetal bovine serum (FBS) and Northern Blot analyses were performed using ^32P-radiolabelled probe for human TSP-1, VEGF or GAPDH, respectively. TSP-1 expression in HUVEC cells was decreased in response to HGF/SF treatment. However, VEGF expression was undetectable with or without HGF/SF treatment.
(§2) FIG. 2A: HGF/SF induces activation of MAP kinase and PI3 kinase pathways in SK-LMS-1 cells and MDA-MB-231 cells. Serum-starved cells were treated with or without DMSO (control), PD98059 (80 μM), U0126 (40 μM) or LY294002 (40 μM) for 1 hour, followed by HGF/SF stimulation for 15 minutes (A time point good for observing all the tyrosine phosphorylation statuses). Whole cell extracts were prepared and the state of Met phosphorylation was detected by immunoprecipitation with anti-human Met antibody, followed by Western blot with anti-Phosphotyrosine (and/or anti-human Met antibody). For detection of Erk and Akt, Western blots were probed with anti-phospho p44/42 MAPK, anti-p44/42 MAPK, anti-phospho Akt (Ser473) or anti-Akt antibodies, respectively. FIG. 2B: Negative regulation of TSP-1 expression occurs primarily through the MAP kinase pathway, while positive regulation of VEGF expression occurs through MAP kinase and PI3 kinase pathway. Total RNAs were prepared from cells with or without inhibitor treatment and/or HGF/SF treatment. Northern Blot analyses were performed as described in FIG. 1A-caption. […] Up-regulation of VEGF was inhibited by PD98059, U0126 as well as LY294002. […]: VEGF but not TSP-1 expression was regulated by Stat3 signaling. Total RNAs were prepared from SK/HGF cells with or without overexpression of a dominant negative form of Stat3, Stat3 (17). […] FIG. 2D: LF increases TSP-1 and decreases VEGF expression in MDA-MB-231 human breast cancer cells. Cells were treated with or without indicated inhibitors for 24 hours and then total RNAs were prepared. Northern Blot analyses were performed using ^32P-radiolabelled probe for human TSP-1, VEGF or GAPDH, respectively.
(§3) VEGF was also elevated in long term cultures of SK-LMS-1 cells autocrine for HGF/SF (SK/HGF, 15) (FIG. 1A). […] This effect was seen as early as 6 hours after HGF treatment and continued to 48 hours. More dramatically, TSP-1 expression was eliminated in the SK/HGF cell line.
(§4) HGF/SF, acting through its tyrosine kinase receptor, Met, is known to activate several intracellular signaling pathways, including MAP kinase, PI3 kinase and Stat3 (1, 16). The present inventors asked which pathways might be involved in regulating VEGF and TSP-1 expression. The present inventors treated SK-LMS-1 and MDA-MB-231 cells with (or without) various inhibitors for one hour, followed by HGF/SF stimulation for 15 minutes (FIGS. 2A/1 and 2A/2). Met receptor is tyrosine-phosphorylated in response to HGF/SF, followed by the activation of downstream targets of Erk p44/42 MAPK) and Akt/PI3 kinase. […] RNA samples from SK-LMS-1 and MDA-MB-231 cells treated with individual inhibitors followed by HGF/SF treatment for 24 hours were analyzed by Northern Blot analyses. HGF/SF-induced shut off of TSP-1 was blocked by PD98059 or U0126 but was not affected by LY294002 (FIGS. 2B/1-2B/2), nor by overexpression of Stat3B, a dominant-negative form of Stat3 (FIG. 2C) (17). […]

Erk (p44/42 MAPK) = assay: Western blot of Erk (p44/42 MAPK) activation after HGF/SF stimulation; format: cell-based, human; conditions: for constitutive level of MAP kinase activity: MDA-MB-231 cells (FIG. 2A/2); for activation of Erk in response to HGF/SF: SK-LMS-1 and MDA-MB-231 cells, inhibitor 1 hour (PD98059 80 μM, U0126 40 μM), then HGF/SF 15 minutes
Procedure: as §2
HGF/SF, acting through its tyrosine kinase receptor, Met, is known to activate several intracellular signaling pathways, including MAP kinase, PI3 kinase and Stat3 (1, 16). The present inventors asked which pathways might be involved in regulating VEGF and TSP-1 expression. The present inventors treated SK-LMS-1 and MDA-MB-231 cells with (or without) various inhibitors for one hour, followed by HGF/SF stimulation for 15 minutes (FIGS. 2A/1 and 2A/2). Met receptor is tyrosine-phosphorylated in response to HGF/SF, followed by the activation of downstream targets of Erk p44/42 MAPK) and Akt/PI3 kinase. […] RNA samples from SK-LMS-1 and MDA-MB-231 cells treated with individual inhibitors followed by HGF/SF treatment for 24 hours were analyzed by Northern Blot analyses. HGF/SF-induced shut off of TSP-1 was blocked by PD98059 or U0126 but was not affected by LY294002 (FIGS. 2B/1-2B/2), nor by overexpression of Stat3B, a dominant-negative form of Stat3 (FIG. 2C) (17). […] In MDA-MB-231 cells, the present inventors observed a dramatic effect from the MEK MAP kinase inhibitors on TSP-1 (FIG. 2B/2).

VEGF expression = assay: Northern blot of VEGF expression; format: cell-based, human; conditions: for VEGF expression in the absence of HGF/SF induction: inhibitor 24 hours, LF at 1, 3 or 9 μg/ml (FIG. 2D); for expression of VEGF induced by HGF/SF: inhibitor followed by HGF/SF for 24 hours; for VEGF expression (up-regulation by HGF/SF): SK-LMS-1 and MDA-MB-231 cells (FIGS. 2B/1, 2B/2); for VEGF expression after HGF/SF treatment: HGF/SF 200 units/ml
Procedure: as §1, §2, §3, §4

[1] = test system: tumor angiogenesis (CD31-positive vessels); assay: CD31 immunohistochemical staining of blood vessels in tumor sections; format: in vivo, athymic nude mice; conditions: SK/HGF-TSP1 versus SK/HGF tumors; P<0.01
Text: FIGS. 4A and 4B/1-4B/6 are a graph and photomicrographs showing that TSP-1 inhibits HGF/SF-induced tumor angiogenesis. […] Three fields (10× magnification) from each stained tumor section were photographed and the numbers of CD31-positive vessels (brown staining) were scored. The numbers represent the average number of blood vessels in sections from four tumors for each group (P<0.01).
To test whether the inhibition of tumor growth by TSP-1 was due to an extrinsic effect by preventing tumor angiogenesis, the present inventors performed immunohistochemical staining using antibodies against mouse endothelial cell surface marker CD31 to detect the number of blood vessels in SK/HGF and SK/HGF-TSP-1 tumor sections.

SK/HGF cells = assay: Cell proliferation and anchorage-independent growth in vitro; format: cell-based, human; conditions: TSP-1 overexpression compared with parental SK/HGF cells in vitro
Text: FIGS. 5A and 5B are graphs showing that overexpression of TSP-1 has no effect on cell proliferation or anchorage-independent growth compared the parental SK/HGF cells in vitro.
TSP-1 was overexpressed in SK/HGF cells to generate SK/HGF-TSP1 cells (FIG. 3A). Overexpression of TSP-1 has no effect on cell proliferation or anchorage-independent growth compared the parental SK/HGF cells in vitro (FIGS. 5A-5B). To test whether TSP-1 influences tumorigenicity, the present inventors SK/HGF and SK/HGF-TSP1 cells were subcutaneously implanted in athymic nude mice, and their tumor growth rates were compared. At early times, no growth differences were observed between the SK/HGF and SK/HGF-TSP1 groups. However, when the tumors grew to a certain size, differences between became more apparent (Student's t test p<0.025). […] TSP-1 protein expression was confirmed in the SK/HGF-TSP1 tumor group by Western blot analysis (FIG. 3D).

SK/HGF tumor xenografts = assay: Subcutaneous tumor growth of SK/HGF-TSP1 versus SK/HGF cells in athymic nude mice; format: in vivo; conditions: TSP-1 overexpression in SK/HGF cells implanted subcutaneously in athymic nude mice; p<0.025
Text: FIG. 3A-3D. TSP-1 inhibits HGF/SF-induced tumor growth in vivo. FIG. 3A: TSP-1 was ectopically expressed in SK/HGF cells, establishing the SK/HGF-TSP 1 cell line. The expression of TSP-1 in SK/HGF-TSP1 cells was confirmed by Northern blot analysis. FIG. 3B: Tumor growth of SK-LMS cells and the influence of TSP-1 overexpression. SK-LMS-1 control cells, SK/HGF control cells and SK/HGF-TSP 1 cells (clone 26) were subcutaneously implanted in athymic nude mice, respectively. The animals were monitored for tumor growth and tumor volumes (Tvol) were measured twice a week. The Tvol values represent an average of four mice for each group (P<0.025). FIG. 3C: Visualization of the tumors at sacrifice. FIG. 3D: TSP-1 protein in tumor xenografts is derived from SK/HGF-TSP1 cells. Cell extracts were prepared from fresh tumors and TSP-1 protein was detected by anti-TSP-1 antibody under denatured condition.
TSP-1 was overexpressed in SK/HGF cells to generate SK/HGF-TSP1 cells (FIG. 3A). Overexpression of TSP-1 has no effect on cell proliferation or anchorage-independent growth compared the parental SK/HGF cells in vitro (FIGS. 5A-5B). To test whether TSP-1 influences tumorigenicity, the present inventors SK/HGF and SK/HGF-TSP1 cells were subcutaneously implanted in athymic nude mice, and their tumor growth rates were compared. […]

[2] = HUVEC, HGF/SF 200 units/ml for 24 hours

## VEGF-Trap: soluble decoy VEGF receptor fused to IgG; high-affinity VEGF blocker
VEGF; Holash et al.
  tumor growth and vascularization in vivo: effectively suppressed tumor growth and vascularization
VEGF; Huang et al., followed by tumor regression including lung micrometastases
  vasculature in established xenografts: abolished mature, preexisting vasculature

## N#CC(=C(/N)Sc1ccccc1N)/C(C#N)=C(\N)Sc1ccccc1N [U0126]
TSP-1 expression
  TSP-1 expression relative to basal level after inhibitor treatment: higher than the basal level
  HGF/SF-induced shut off (down-regulation) of TSP-1: blocked; also recorded: inhibited
TSP-1 expression; MDA-MB-231 cells
  TSP-1 expression in the absence of HGF/SF induction: up-regulation of TSP-1
Erk (p44/42 MAPK)
  constitutive level of MAP kinase activity: inhibited
  activation of Erk in response to HGF/SF: blocked the activation of Erk
VEGF expression; MDA-MB-231 cells
  VEGF expression in the absence of HGF/SF induction: down-regulation of VEGF
  expression of VEGF induced by HGF/SF: suppressed
VEGF expression
  VEGF expression (up-regulation by HGF/SF): inhibited
VEGF expression; SK-LMS-1 cells
  expression of VEGF induced by HGF/SF: only slightly

## TSP-1: thrombospondin-1, angiogenesis antagonist; tested by ectopic overexpression in SK/HGF cells
[1]
  neovascularization (number of CD31-positive vessels) in tumors: Decreased neovascularization
SK/HGF cells
  cell proliferation or anchorage-independent growth: no effect
SK/HGF tumor xenografts
  HGF/SF-dependent tumor growth: partially inhibited

## COc1cccc(-c2cc(=O)c3ccccc3o2)c1N [PD98059]
TSP-1 expression
  TSP-1 expression relative to basal level after inhibitor treatment: higher than the basal level
  HGF/SF-induced shut off (down-regulation) of TSP-1: blocked; also recorded: inhibited
TSP-1 expression; MDA-MB-231 cells
  TSP-1 expression in the absence of HGF/SF induction: up-regulation of TSP-1
Erk (p44/42 MAPK)
  constitutive level of MAP kinase activity: inhibited
  activation of Erk in response to HGF/SF: blocked the activation of Erk
VEGF expression; MDA-MB-231 cells
  VEGF expression in the absence of HGF/SF induction: down-regulation of VEGF
  expression of VEGF induced by HGF/SF: suppressed
VEGF expression
  VEGF expression (up-regulation by HGF/SF): inhibited
VEGF expression; SK-LMS-1 cells
  expression of VEGF induced by HGF/SF: only slightly

## HGF/SF: recombinant human hepatocyte growth factor/scatter factor, ligand of the Met receptor
TSP-1 expression; [2]
  TSP-1 expression after HGF/SF treatment: decreased
TSP-1 expression; MDA-MB-231 cells, 24 and 48 hours after HGF treatment
  TSP-1 expression after HGF/SF treatment: down-regulation of TSP-1
TSP-1 expression; SK-LMS-1 cells, HGF/SF 200 units/ml, 6 to 48 hours
  TSP-1 expression after HGF/SF treatment: significant decrease in TSP-1 expression
VEGF expression; [2]
  VEGF expression with or without HGF/SF treatment: undetectable
VEGF expression; MDA-MB-231 cells, persisted for 48 hours
  VEGF expression after HGF/SF treatment: levels of VEGF increased
VEGF expression; SK-LMS-1 cells, up to 48 hours
  VEGF expression after HGF/SF treatment: induced VEGF
